Several values for one entry are separate records, joined by “and”; a condition that tells them apart may be missing. Equal entries are not always repeated. Entries after “also recorded” stand apart in the source; their conditions may differ. Non-standard residues stand in square brackets, D forms with d. Residues, ends and D or L forms follow the SMILES beside them. *: point of attachment. X1 = CC(C)(C)c1cc(C=CC=CC=C2N(CCCS(=O)(=O)O)c3ccc(S(=O)(=O)O)cc3C2(C)CCCC(=O)*)c2cc3c(cc2[o+]1)N(CCCS(=O)(=O)O)C(C)(C)C=C3CS(=O)(=O)[O-]
Legend:
A431/CCK2R cells = assay: Target binding and internalization in vitro, fluorescence microscopy; format: cell-based, human; settings: 0.5 μM, 30 min
Protocol: (§1) Binding of the optical probes QE and bivQ to CCK2R-expressing (A431/CCK2R) and CCK2R-non-expressing (A431/WT) cells was investigated after incubation with 0.5 μM of each probe in culture medium for 30 min at 4°C to observe active surface receptor binding and at 37°C to check for internalization behaviour, which is mandatory for in vivo signal amplification. Incubation with 0.5 μM of the fluorochrome DY-754 should determine the role of the interaction of the peptide with the CCK2R for probe uptake. Probe incubation was followed by cell membrane staining with wheat germ agglutinin-Alexa Fluor®-555 (WGA-555, Invitrogen, Carlsbad, CA, USA), fixation in 4% (v/v) paraformaldehyde on ice and mounting in PermaFluor® Mounting medium (Thermo Fisher, Waltham, MA, USA), containing 0.2 μg/mL Hoechst 33258 (Applichem, Darmstadt, Germany) to stain cell nuclei. Fluorescence microscopy was carried out with the digital microscope EVOSfl (AMG, Bothell, WA, USA) equipped with three filter cubes for visualization of Hoechst (excitation 335 to 379 nm, emission 417 to 477 nm), WGA-555 (excitation 511 to 551 nm, emission 573 to 613 nm) and DY-754 (excitation 690 to 730 nm, emission 752 to 798 nm).

A431/WT cells = assay: Target binding in vitro, fluorescence microscopy, CCK2R-non-expressing cells; format: cell-based, human; settings: 0.5 μM, 30 min
Protocol: as §1

A431/CCK2R tumours = assay: In vivo NIRF imaging of CCK2R-expressing xenografts; design: species or system athymic nude mice
From the text: Female athymic nude mice (Hsd:Athymic Nude-Foxn1^nu nu/nu; Harlan Laboratories, Eystrup, Germany) were housed under standard conditions with water and food ad libitum. Mice were maintained under a low-pheophorbide diet (C 1039; Altromin, Lage, Germany) to reduce tissue autofluorescence. All procedures were approved by the regional animal committee (reg. number 02-007/10) and were in accordance with international guidelines on the ethical use of animals. Animals were anesthetized with 2% isoflurane during all procedures. To implement subcutaneous xenografts, 5 × 10^5 CCK2R transfected (A431/CCK2R) and non-transfected wild-type cells (A431/WT) were dispensed in Matrigel™ (BD Biosciences, Heidelberg, Germany) and injected into the right (A431/CCK2R cells) and left (A431/WT cells) flank of 8- to 12-week-old animals 10 to 15 days before in vivo imaging.
Xenografts were inoculated in athymic nude mice (Hsd:Athymic Nude-Foxn1^nu nu/nu; Harlan Laboratories) 10 to 15 days before imaging by subcutaneous injection of 0.5 million A431/CCK2R […] and A431/WT cells (right flank) dispersed in Matrigel™ (BD Biosciences). For in vivo fluorescence imaging, 108 nmol/kg QE or 54 nmol/kg bivQ probe was injected intravenously (i.v.), according to the results of a dose determination experiment, which was set up to identify the optimal relation between sensitivity and contrast (Additional file 1). […] Another group received 108 nmol/kg of the unconjugated fluorophore DY-754 to determine dye-mediated non-specific tumour uptake, and one group remained untreated to control for probe-unrelated NIR fluorescence in the animals. At defined time points between 0 and 8 h p.i., NIRF fluorescence images (excitation 615 to 665 nm, emission >750 nm) and white light images of the animals were obtained. By means of spectral unmixing, tissue autofluorescence was removed from the images. Subsequently, fluorescence intensities (FI) were analysed over the time in regions of interest (ROIs) that were placed upon the tumours and non-tumour tissue. As a measure of contrast between tumour and non-tumour fluorescence, tumour/background ratios (TBRs) were calculated as a quotient of FItumour/FInon-tumour.

A431/WT tumours = assay: In vivo NIRF imaging of CCK2R-negative xenografts; design: species or system athymic nude mice; settings: 1 to 8 h p.i.; i.v. 108 nmol/kg QE or 54 nmol/kg bivQ; n = 5
From the text: Female athymic nude mice (Hsd:Athymic Nude-Foxn1^nu nu/nu; Harlan Laboratories, Eystrup, Germany) were housed under standard conditions with water and food ad libitum. Mice were maintained under a low-pheophorbide diet (C 1039; Altromin, Lage, Germany) to reduce tissue autofluorescence. All procedures were approved by the regional animal committee (reg. number 02-007/10) and were in accordance with international guidelines on the ethical use of animals. Animals were anesthetized with 2% isoflurane during all procedures. […]
Xenografts were inoculated in athymic nude mice (Hsd:Athymic Nude-Foxn1^nu nu/nu; Harlan Laboratories) 10 to 15 days before imaging by subcutaneous injection of 0.5 million A431/CCK2R (left flank) and A431/WT cells (right flank) dispersed in Matrigel™ (BD Biosciences). For in vivo fluorescence imaging, 108 nmol/kg QE or 54 nmol/kg bivQ probe was injected intravenously (i.v.), according to the results of a dose determination experiment, which was set up to identify the optimal relation between sensitivity and contrast (Additional file 1). […] Another group received 108 nmol/kg of the unconjugated fluorophore DY-754 to determine dye-mediated non-specific tumour uptake, and one group remained untreated to control for probe-unrelated NIR fluorescence in the animals. […]

[1] = Biodistribution, ex vivo NIRF of organs and xenografts 8 h p.i.; format: in vivo, athymic nude mice
Protocol: We investigated the biodistribution of the optical probes and of the fluorochrome DY-754 to determine the influence of the dye on tumour and organ accumulation. Therefore, 8 h p.i., ex vivo NIRF fluorescence images of the organs and the two xenografts (A431/CCK2R and A431/WT) per mouse were taken in combination with the placement of ROIs on these organs to assess semiquantitative fluorescence intensities.

[2] = tested on: A431/CCK2R and A431/WT tumours; assay: Ex vivo intratumoural probe distribution in cryosections (Odyssey scanner); design: species or system athymic nude mice; settings: acetone-fixed 30-μm cryosections of explanted xenografts, three specimens/group
From the text: To determine intratumoural distribution of the peptide probes ex vivo, acetone-fixed 30-μm cryosections of explanted xenografts were scanned mesoscopically in the near-infrared scanner Odyssey® (LI-COR, Bad Homburg, Germany) at 700 nm (autofluorescence) and 800 nm (probe fluorescence).

[3] = Metabolic (protease) stability in mouse liver homogenates; format: in vitro ADME; settings: mouse liver homogenate, incubation up to 180 min, HPLC with UV/VIS detection at 750 nm, three parallels
Protocol: Supplementary file 2191-219X-3-75-S3.pptx: Additional file 3: Metabolic (protease) stability of QE and bivQ against the degradation by mouse liver homogenates. The HPLC peak of non-degraded QE at 9.7 min elution time (a-I) decreased after 180 min of probe incubation in liver homogenate, whereas a second peak, representing degradation products, appeared at 7.2 min of elution (a-II). Degradation curves of (b) QE and (c) bivQ. […] Peaks were detected at 750 nm with a UV/VIS detector. Data represent three parallels. Click here for file
Supplementary file 2191-219X-3-75-S4.pptx: Additional file 4: Metabolic stability of the optical CCK2R targeted minigastrin dQ-MG-754 [[20]]. Degradation of dQ-MG-754 for comparison with QE and bivQ. […] Probe signal was detected at 750 nm with a UV/VIS detector. Data represent three parallels. Click here for file

[4] = target: T1, cholecystokinin-2/gastrin receptor (CCK2R) (Homo sapiens, UniProt P32239); assay: saturation binding on A431/CCK2R cells, NIR fluorescence
T1 chain: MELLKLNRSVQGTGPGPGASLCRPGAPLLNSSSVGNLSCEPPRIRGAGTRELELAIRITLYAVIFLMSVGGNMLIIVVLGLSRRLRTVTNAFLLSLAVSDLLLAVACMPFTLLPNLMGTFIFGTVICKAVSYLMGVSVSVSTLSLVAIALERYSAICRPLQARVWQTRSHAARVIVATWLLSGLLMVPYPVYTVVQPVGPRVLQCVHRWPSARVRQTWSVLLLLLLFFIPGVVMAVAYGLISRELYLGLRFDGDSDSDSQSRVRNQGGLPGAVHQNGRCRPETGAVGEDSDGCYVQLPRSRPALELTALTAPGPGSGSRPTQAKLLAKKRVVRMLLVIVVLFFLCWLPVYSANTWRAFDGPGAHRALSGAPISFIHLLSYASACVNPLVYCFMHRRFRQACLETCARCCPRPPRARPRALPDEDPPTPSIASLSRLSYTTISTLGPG

[5] = target: T1, cholecystokinin-2/gastrin receptor …; assay: competition with QE probe on cells, NIR fluorescence
[6] = target: T1, cholecystokinin-2/gastrin receptor …; assay: competition with bivQ probe on cells, NIR fluorescence

CSCC[C@H](NC(=O)[C@H](Cc1c[nH]c2ccccc12)NC(=O)CNC(=O)[C@H](Cc1ccc(O)cc1)NC(=O)[C@H](C)NC(=O)[C@@H](CCC(=O)O)NC(=O)[C@@H](CCC(N)=O)NC(=O)[C@@H](CCC(=O)O)NC(=O)[C@@H](CCC(N)=O)NC(=O)[C@@H](CCC(=O)O)NC(=O)[C@@H](CCC(N)=O)NC(=O)CCCC1(C)C(=CC=CC=Cc2cc(C(C)(C)C)[o+]c3cc4c(cc23)C(CS(=O)(=O)[O-])=CC(C)(C)N4CCCS(=O)(=O)O)N(CCCS(=O)(=O)O)c2ccc(S(=O)(=O)O)cc21)C(=O)N[C@@H](CC(=O)O)C(=O)N[C@@H](Cc1ccccc1)C(N)=O (stereo partly drawn) [QE] (X1-[dQ][dE][dQ][dE][dQ][dE]AYGWMDF-NH2)
probe localisation in A431/CCK2R cells at 4°C (A431/CCK2R cells; 4°C): restricted to the cell membrane | binding and internalization in A431/CCK2R cells at 37°C (A431/CCK2R cells; 37°C, n = 3): binding and internalization | binding to A431/WT cells (no CCK2R expression) (A431/WT cells): no binding | TBR, A431/CCK2R xenografts, under competition (A431/CCK2R tumours; 8 h p.i., co-injection of 10-fold molar excess of non-fluorescent minigastrin, mean ± SD, n = 5): 4.4 ± 0.9 | tumour/background ratio (TBR), A431/CCK2R xenografts (A431/CCK2R tumours; 8 h p.i., i.v. 108 nmol/kg QE or 54 nmol/kg bivQ, mean ± SD, n = 5): 6.2 ± 1.0 | TBR, CCK2R-expressing xenografts (summary bound) (A431/CCK2R tumours; high-contrast imaging, discussion summary): > 6 | TBR, A431/WT tumours (A431/WT tumours): ~2 and < 2 | fluorescence accumulation in stomach, small intestine and colon ([1]; n = 5): no fluorescence accumulation | uptake in the liver compared to free DY-754 ([1]; n = 5): weakly elevated uptake | uptake into A431/WT tumours (biodistribution) ([1]; n = 5, comparably high for DY-754 (p > 0.05)): weak uptake | intratumoural fluorescence at 800 nm in tumour sections [2]: only in the outer A431/CCK2R tumour regions | metabolic stability against degradation by liver proteases [3]: more stable than bivQ; also recorded: highly stable

B1: QE minigastrin probe (peptide)
chain: {DY‑754}-AYGWMDF-NH2
modifications: also: N-terminal spacer of three alternating D-Gln and three D-Glu, order not given here, M5: Met or Nle
Kd [4]: 0.0058 µM

LEEEEEAYGWMDF [HG-13 minigastrin]
IC50 [5]: 0.0167 µM | IC50 [6]: 0.0166 µM

From paper PMC4176481, “Influence of D-glutamine and D-glutamic acid sequences in optical peptide probes targeted against the cholecystokinin-2/gastrin-receptor on binding affinity, specificity and pharmacokinetic properties” (EJNMMI Research, 2013)
